Source: ChEMBL document CHEMBL3217660, “Design, synthesis and antiproliferative activity of urocanic-chalcone hybrid derivatives” (Medchemcomm, 2011)

Columns and labels:
[1] = Antiproliferative activity against human FEK4 cells assessed as inhibition of cell proliferation after 3 days by MTS assay; assay type: cell-based; conditions: FEK4, 72 h
HT-29 [2] = test: Antiproliferative activity against human HT-29 cells assessed as inhibition of cell proliferation after 3 days by MTS assay; assay type: functional, cell-based; conditions: HT-29, 72 h
MDA-MB-231 = test: Antiproliferative activity against human MDA-MB-231 cells assessed as inhibition of cell proliferation after 3 days by MTS assay; assay type: functional, cell-based; conditions: MDA-MB-231, 72 h
LNCaP = test: Antiproliferative activity against human LNCAP cells assessed as inhibition of cell proliferation after 3 days by MTS assay; assay type: functional, cell-based; conditions: 72 h
Tubulin (Homo sapiens) = Tubulin (Homo sapiens) (UniProt P68371+Q9H4B7+P0DPH7+P68366+Q13509+Q71U36+P04350+Q3ZCM7+P07437+P68363+Q9BQE3+Q6PEY2+Q13885+Q9BVA1+Q9BUF5); test: Induction of tubulin (unknown origin) polymerization; assay type: protein-complex assay
A2780 = test: Inhibition of human A2780 cell proliferation; assay type: functional, cell-based
HCT-116 = test: Inhibition of human HCT116 cell proliferation; assay type: functional, cell-based
HT-29 [3] = test: Inhibition of human HT-29 cell proliferation; assay type: functional, cell-based
K562 = test: Inhibition of human K562 cell proliferation; assay type: functional, cell-based

IC50 (HT-29 [2]) [µM] | IC50 (MDA-MB-231) [µM] | IC50 (LNCaP) [µM] | ED90 (Tubulin (Homo sapiens)) [µM] | IC50 (A2780) [µM] | IC50 (HCT-116) [µM] | IC50 (HT-29 [3]) [µM] | IC50 (K562) [µM] | SMILES | IC50 [1] [µM]
5 | 4.9 | 17.1 |  |  |  |  |  | COc1cc(C(=O)/C=C/c2ncc[nH]2)cc(OC)c1OC | 28.6
5 |  |  | 1.8 | 4 | 4 | 5 |  | CC1=CC[C@H](C(C)C)[C@H]2C[C@H](OC(=O)C(C)(C)C)[C@@H](O)/C=C\C[C@@H](OC(=O)/C=C/c3cn(C)cn3)C[C@@H]12 | 
0.164 | 0.12 | 0.154 |  |  |  |  |  | COc1cccc2c1C(=O)c1c(O)c3c(c(O)c1C2=O)C[C@@](O)(C(=O)CO)C[C@@H]3O[C@H]1C[C@H](N)[C@H](O)[C@H](C)O1 [DOXORUBICIN] | 
86 | 102 | 105 |  |  |  |  |  | COc1ccc(C(=O)/C=C/c2ccc[nH]2)cc1OC | 135
4.2 | 4.9 | 11 |  |  |  |  |  | COc1cc(C(=O)/C=C/c2nccn2C)cc(OC)c1OC | 17.5
 |  |  | 3 |  |  |  |  | O[C@H]1C/C=C\CC[C@@H]2C=C[C@H]1O2 | 
 |  |  | 6 |  |  |  |  | Cn1cnc(/C=C/C(=O)O[C@H]2C/C=C\CC[C@@H]3C=C[C@H]2O3)c1 | 
61.8 | 53.5 | 75.5 |  |  |  |  |  | COc1ccc(C(=O)/C=C/c2cccn2C)cc1 | 188
19.5 | 22.9 | 48.1 |  |  |  |  |  | COc1cc(C(=O)/C=C/c2cnc[nH]2)cc(OC)c1OC | 53.2
43 | 49.9 | 59.9 |  |  |  |  |  | COc1cc(C(=O)/C=C/c2ccc[nH]2)cc(OC)c1OC | 156
 |  |  | 0.5 | 1.9 | 0.9 |  | 2.3 | COc1ccc(O[C@@H]2/C=C\CC(O)C[C@@H]3[C@@H](C(C)C)CC=C(C)[C@@H]3C[C@@H]2OC(=O)/C=C/c2cn(C)cn2)cc1 (single isomer, unassigned) | 
15.9 | 16.9 | 30.6 |  |  |  |  |  | COc1cc(C(=O)/C=C/c2cncn2C)cc(OC)c1OC | 49.9
> 500 | 223 | 368 |  |  |  |  |  | COc1cc(C(=O)CCc2cnc[nH]2)cc(OC)c1OC | > 500
12.5 | 18 | 69.5 |  |  |  |  |  | COc1cc(C(=O)/C=C/c2cccn2C)cc(OC)c1OC | 118
> 500 | > 500 | > 500 |  |  |  |  |  | COc1ccc(C(=O)/C=C/c2ccc[nH]2)cc1 | > 500
2.9 | 4.8 | 48.4 |  |  |  |  |  | COc1cc(C(=O)/C=C/c2cn(C)cn2)cc(OC)c1OC | 85
60.4 | 42.8 | 56.3 |  |  |  |  |  | COc1ccc(C(=O)/C=C/c2cccn2C)cc1OC | 162
< 0.005 |  |  | 0.5 |  |  |  |  | CC(=O)O[C@H]1C(=O)[C@@]2(C)[C@H]([C@H](OC(=O)c3ccccc3)[C@]3(O)C[C@H](OC(=O)[C@H](O)[C@@H](NC(=O)c4ccccc4)c4ccccc4)C(C)=C1C3(C)C)[C@]1(OC(C)=O)CO[C@@H]1C[C@@H]2O [PACLITAXEL] | 

SMILES | IC50 (HT-29 [2]) [µM] | IC50 (MDA-MB-231) [µM] | IC50 (LNCaP) [µM] | ED90 (Tubulin (Homo sapiens)) [µM] | IC50 (A2780) [µM] | IC50 (HCT-116) [µM] | IC50 (HT-29 [3]) [µM] | IC50 (K562) [µM] | IC50 [1] [µM]
COc1ccc(C(=O)/C=C/c2cnc[nH]2)cc1OC | 37.9 | 18.2 | 46.2 |  |  |  |  |  | 84.2
